Data taken from patent US10316017B2, “COT modulators and methods of use thereof” (Gilead Sciences, Inc., priority 2015, dated 2019).
pEC50, pIC50: −log10 of the molar value.

Assays:
[1] = test system: TNFα production in LPS-stimulated human monocytes; assay: Cot Monocyte TNFα Cell Based Assay; conditions: Homo sapiens, Monocyte, LPS-stimulated human monocytes, TNFα TR-FRET; read-out: EC50 TNF
Procedure, shortened: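 TNFα release quantified by two-antibody TR-FRET, normalised to unstimulated (0%) and LPS-stimulated (100%) wells. Cells got a 1 h compound exposure at 37° C in 0.5% DMSO before 4 h challenge with 50 pg/ml LPS, at 5,000 cells/well.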

[2] = biological target: T1, human Cot catalytic domain (30-397 amino acids) (Homo sapiens, UniProt P41279); assay: High Throughput Cot Biochemical Assay (KinEASE TR-FRET); conditions: Cot KinEASE TR-FRET, 400 μM ATP; read-out: IC50 HTRF
T1 construct: Purified recombinant human Cot catalytic domain (30-397 amino acids) was purchased from Cama Biosciences; purchased Cama Biosciences (so in the source)
T1 sequence (P41279 30-397): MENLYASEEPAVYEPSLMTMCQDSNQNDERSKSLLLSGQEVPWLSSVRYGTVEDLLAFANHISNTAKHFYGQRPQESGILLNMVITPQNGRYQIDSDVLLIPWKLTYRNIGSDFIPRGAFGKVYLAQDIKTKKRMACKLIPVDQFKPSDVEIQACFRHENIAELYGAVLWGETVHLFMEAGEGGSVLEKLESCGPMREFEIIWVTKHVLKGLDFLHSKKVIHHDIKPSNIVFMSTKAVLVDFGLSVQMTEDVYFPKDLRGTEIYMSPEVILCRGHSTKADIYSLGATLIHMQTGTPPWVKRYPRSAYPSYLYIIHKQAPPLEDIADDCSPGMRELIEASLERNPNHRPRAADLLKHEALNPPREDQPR
Procedure, shortened: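 TR-FRET (KinEASE) read-out: Eu-labelled phospho-specific antibody binds XL665-tagged STK3 peptide (1 μM) phosphorylated by 5 nM human Cot kinase domain (residues 30-397). Reaction at 400 μM ATP, pH 7.0 MOPS buffer with 10 mM MgOAc, 1 mM DTT and 0.1% DMSO.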

SMILES | pEC50 [1] | pIC50 [2]
CC(C)(C)CNc1c(C#N)cnc2c(C#N)cc(N[C@H](c3cn(CC(N)=O)nn3)c3ccccc3Cl)cc12 [Example 963, (S)-2-(4-((2-chlorophenyl) ((3,8-dicyano-4-(neopentylamino)quinolin-6-yl)amino)methyl)-1H-1,2,3-triazol-1-yl)acetamide] | 6.11 | 8.52
[2H][C@](Nc1cc(Cl)c2ncc(C#N)c(NCC(C)(C)C)c2c1)(c1cn(C2(CO)COC2)nn1)c1ccccc1Cl [Example 965, 8-chloro-6-(((2-chlorophenyl) (1-(3-(hydroxymethyl)oxetan-3-yl)-1H-1,2,3-triazol-4-yl)methyl-d)amino)-4-(neopentylamino) quinoline-3-carbonitrile] | 6.54 | 7.85
[2H][C@](Nc1cc(Cl)c2ncc(C#N)c(Nc3cccc(Cl)c3OC(F)(F)F)c2c1)(c1ccc(F)cc1)c1cn(C2CC2)nn1 [Example 966, (S)-8-chloro-4-((3-chloro-2-(trifluoromethoxy)phenyl)amino)-6-(((1-cyclopropyl-1H-1,2,3-triazol-4-yl)(4-fluorophenyl)methyl-d)amino)quinoline-3-carbonitrile] | ≤ 6.00 | 7.07
[2H][C@](Nc1cc(Cl)c2ncc(C#N)c(NC3(C(F)F)CC3)c2c1)(c1ccc(F)cc1)c1cn(C2CC2)nn1 [Example 967] | ≤ 6.00 | 6.15
[2H]C(Nc1cc(C#N)c2ncc(C#N)c(NCC(C)(C)C)c2c1)(c1cccc(C#N)c1)c1cn(C2(C(N)=O)CC2)nn1 (centres unmarked) [Example 969, 1-(4-((3-cyanophenyl)((3,8-dicyano-4-(neopentylamino)quinolin-6-yl)amino)methyl-d)-1H-1,2,3-triazol-1-yl)cyclopropane-1-carboxamide] | ≤ 6.00 | 9.00
[2H][C@](Nc1cc(Cl)c2ncc(C#N)c(NCC(C)(C)C)c2c1)(c1cccc(C#N)c1)c1cn(C(F)(F)C(N)=O)nn1 [Example 971, (S)-2-(4-(((8-chloro-3-cyano-4-(neopentylamino)quinolin-6-yl)amino)(3-cyanophenyl)methyl-d)-1H-1,2,3-triazol-1-yl)-2,2-difluoroacetamide] | 6.57 | 8.40

Now those with a higher pEC50 [1], led by results:

pEC50 [1] | pIC50 [2] | SMILES
7.68 | 9.00 | N#CCC[C@@H](Nc1c(C#N)cnc2c(C#N)cc(N[C@@H](c3ccccc3)c3cn(C4(C#N)CC4)nn3)cc12)c1ccccc1 [Example 961, 4-(((R)-3-cyano-1-phenylpropyl)amino)-6-(((S)-(1-(1-cyanocyclopropyl)-1H-1,2,3-triazol-4-yl)(phenyl)methyl)amino) quinoline-3,8-dicarbonitrile]
6.94 | 8.15 | CC(C)(C)CNc1c(C#N)cnc2c(C#N)cc(N[C@H](c3cn(C4(C)CC4)nn3)c3ccccc3Cl)cc12 [Example 962, (S)-6-(((2-chlorophenyl)(1-(1-methylcyclopropyl)-1H-1,2,3-triazol-4-yl)methyl)amino)-4-(neopentylamino)quinoline-3,8-dicarbonitrile]
6.96 | 7.77 | CC(C)(C)CNc1c(C#N)cnc2c(C#N)cc(N[C@@H](c3ccc(F)cc3)c3cn(C4(c5ccccn5)CC4)nn3)cc12 [Example 968, (S)-6-(((4-fluorophenyl)(1-(1-(pyridin-2-yl)cyclopropyl)-1H-1,2,3-triazo1-4-yl)methyl)amino)-4-(neopentylamino) quinoline-3,8-dicarbonitrile]
6.69 | 8.10 | CC(C)(C)CNc1c(C#N)cnc2c(Cl)cc(N[C@@H](c3ccccc3)c3cn(C(F)(F)C(N)=O)nn3)cc12 [Example 970, (S)-2-(4-(((8-chloro-3-cyano-4-(neopentylamino)quinolin-6-yl)amino)(phenyl)methyl)-1H-1,2,3-triazol-1-yl)-2,2-difluoroacetamide]
